Data published in patent US4103011A, “Novel penicillin compounds and process for preparation thereof” (priority 1976, dated 1978).
Counter-ions that a name gives are not always drawn. Like-named read-outs stand apart in the source and are kept apart here.

Columns and labels:
Plasma level in mice = format: in vivo, male mice (ddY)
Description: The contents of the vials (No. A) obtained in Example 17 were dissolved in deionized water to form solutions of compound 1 in a concentration of 100 mg/ml. The solutions were intramuscularly (im) administered to twenty four male mice (ddY) having an average body weight of 26 g at a dose of 25 mg/kg.
Blood was taken by cardiac puncture from four mice ech 0.25, 0.5, 1, 2, 3 and 4 hours after administration, and centrifuged individually to separate the plasma.
Drug levels were determined by the thin-layer cup-plate method using Escherichia coli Kp as an indicator organism. Plasma was appropriately (to more than 10 times) diluted with a 0.067 M phosphate buffer having a pH of 7.0. A standard calibration line was prepared in the same buffer.

[1] = system: bacteria (systemic infection); assay: In vivo efficacy against systemic infection, overall conclusions; set-up: species or system male mice (ddY); conditions: Table II
Description: The contents in the vials (No. A and No. C) prepared in Example 17 were each dissolved in deionized water, and injections having various concentrations were prepared.
Compounds A, B, F, G, H and M were dissolved in deionized water. Compounds C, D, E and J were dissolved in an aqueous solution of sodium carbonate (pH 8-9) to prepare injections of various concentrations.
Each of the injections was administered to mice under the conditions described below, and the median effective doses (ED50) obtained are shown in Table II.

[2] = system: Staphylococcus aureus No. 50774; assay: In vivo efficacy against systemic infection; set-up: species or system male mice (ddY); conditions: NO.50774, in Mus musculus, 336 h, sc, twice, about 5 minutes and 6 hours after infection, read-out: ED50 (median effective dose)
In short: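 Male ddY mice (~20 g) infected intravenously with 50 to 100 LD50 (about 5 × 10^8 cells/mouse) of S. aureus No. 50774 in saline. Compounds in water or aqueous sodium carbonate (pH 8-9) dosed twice, about 5 minutes and 6 hours post-infection; ED50 (mg/kg) by Behrens-Kaerber method.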

Escherichia coli P-5101 = assay: In vivo efficacy against systemic infection; set-up: species or system male mice (ddY); conditions: P5101, in Mus musculus, 168 h, twice, about 5 minutes and 6 hours after infection, read-out: ED50 (median effective dose)
In short: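 Male ddY mice of about 20g were infected intraperitoneally with E. coli P-5101 suspended in tryptosoy broth. Compounds dissolved in deionized water were given twice, about 5 minutes and 6 hours after infection. Effective dose was calculated by the Behrens-Kaerber method.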

In the case of `CC1(C)S[C@@H]2[C@H](NC(=O)[C@H](NC(=O)c3c[nH]c4nc(N5CCN(C=O)CC5)ncc4c3=O)c3ccc(O)cc3)C(=O)N2[C@H]1C(=O)O` [Compound 1, D-α-[5,8-Dihydro-2-(4-formyl-1-piperazinyl)-5-oxopyrido[2,3-d]pyrimidine-6-carboxamido]-p-hydroxybenzyl-penicillin sodium salt], the “plasma level (in words)” value (Plasma level in mice; after parenteral administration) is reported as “much the same concentration as the MIC”, the concentration at 0.25 h (Plasma level in mice; mouse, plasma, 25 mg/kg, im, single dose, 0.25 hour, read-out: Average plasma conc.) is reported as 27400 ng/mL and the concentration at 0.5 h (Plasma level in mice; mouse, plasma, 25 mg/kg, im, single dose, 0.5 hour, read-out: Average plasma conc.) is reported as 21500 ng/mL. It also gave a concentration at 1 h (Plasma level in mice; mouse, plasma, 25 mg/kg, im, single dose, 1 hour, read-out: Average plasma conc.) of 15600 ng/mL, a concentration at 2 h (Plasma level in mice; mouse, plasma, 25 mg/kg, im, single dose, 2 hour, read-out: Average plasma conc.) of 9570 ng/mL and a concentration at 3 h (Plasma level in mice; mouse, plasma, 25 mg/kg, im, single dose, 3 hour, read-out: Average plasma conc.) of 4010 ng/mL. The concentration at 4 h (Plasma level in mice; mouse, plasma, 25 mg/kg, im, single dose, 4 hour, read-out: Average plasma conc.) was 2740 ng/mL, the “antibacterial activity in vivo (in words)” value [1] was “excellent antibacterial activity in vivo” and the ED50 [2] was 2.1 mg/kg. For the same compound, the ED50 (Escherichia coli P-5101; iv) was 2.9 mg/kg and the ED50 (Escherichia coli P-5101; sc) was 3.7 mg/kg.
